According to patent US4966973A, “2-substituted coumaran derivatives” (Takeda Chemical Industries, Ltd., priority 1988, dated 1990):

Biological target: T1, 5-lipoxygenase (Rattus norvegicus, UniProt P12527)
T1 construct: endogenous in cells; host or cells: RBL-1 (rat basophilic leukemia) cells
T1 sequence (P12527 1-673): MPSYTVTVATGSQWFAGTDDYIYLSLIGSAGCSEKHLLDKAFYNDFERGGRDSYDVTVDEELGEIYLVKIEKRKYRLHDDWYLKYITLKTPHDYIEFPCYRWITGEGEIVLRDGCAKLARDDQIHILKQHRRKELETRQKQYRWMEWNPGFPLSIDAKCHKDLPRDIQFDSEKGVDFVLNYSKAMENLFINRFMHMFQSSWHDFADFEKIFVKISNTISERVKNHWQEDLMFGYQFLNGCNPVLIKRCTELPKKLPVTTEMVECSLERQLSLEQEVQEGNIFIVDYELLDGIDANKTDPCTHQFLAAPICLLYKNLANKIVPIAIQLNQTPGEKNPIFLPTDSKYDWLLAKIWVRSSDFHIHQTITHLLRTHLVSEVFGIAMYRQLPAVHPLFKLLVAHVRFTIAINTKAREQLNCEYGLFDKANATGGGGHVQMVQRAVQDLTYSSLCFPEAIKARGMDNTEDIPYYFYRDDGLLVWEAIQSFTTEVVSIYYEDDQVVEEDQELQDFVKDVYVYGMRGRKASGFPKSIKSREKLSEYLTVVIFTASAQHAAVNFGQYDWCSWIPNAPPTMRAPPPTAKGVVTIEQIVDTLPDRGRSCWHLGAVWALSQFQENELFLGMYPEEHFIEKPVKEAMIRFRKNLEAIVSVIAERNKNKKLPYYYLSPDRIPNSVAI
Assay: Effect of Inhibiting 5-Lipoxygenase (inhibition of 5-HETE production in RBL-1 cells, HPLC)
Assay type: cell-based
Conditions: arachidonic acid + A-23187, 37° C., 20 min, read-out: % Inhibition (IE) of 5-HETE production; for inhibition at 10 µM: 10^-5 M; for inhibition at 1 µM: 10^-6 M; for inhibition at 0.1 µM: 10^-7 M; for inhibition at 0.01 µM: 10^-8 M
Experimental: In 0.5 ml of MCM (mast cell medium) was suspended 10^7 of rat basophilic leukemia (RBL-1) cells. To this suspension was added the test solution previously prepared [consisting of 0.5 ml of MCM, […] of arachidonic acid, 10 μg of calcium ionophore A-23187 and the test compound (final concentrations 10 μM, 1 μM, 0.1 μM and 0.01 μM)], and the reaction was allowed to proceed at 37° C. for 20 minutes. To the reaction mixture was added 4 ml of ethanol, which was shaken sufficiently, followed by leaving the resultant mixture standing for 10 minutes at room temperatures. The resultant mixture was subjected to a centrifuge (2000 rpm) for 10 minutes, then the supernatant was separated. Thus-separated supernatant was concentrated to dryness under reduced pressure. To the concentrate was added 0.5 ml of a 60% aqueous methanol. A 100 μl portion of this solution was taken and subjected to high performance liquid chromatography to determine 5-HETE (5-hydroxyeicosatetraenoic acid) quantitatively. UV absorption of 5-HETE at 237 nm was measured with a UV absorption monitor. The inhibitory effect (IE) of 5-HETE is expressed by (1-b/a) x 100. In this formula, a means the height of the peak or the area of the peak in the case of presence of no compound (I), while b means the height of the peak or the area of the peak in the case of containing the compound (I).

inhibition at 10 µM [%]	inhibition at 1 µM [%]	inhibition at 0.1 µM [%]	inhibition at 0.01 µM [%]	Structure (SMILES)
100	100	64	13	Cc1c(C)c2c(c(C)c1O)CC(CSCCC(=O)O)O2 (centres unmarked) [Compound 1]
100	100	100	42	Cc1c(C)c2c(c(C)c1O)CC(CSc1ccccc1)O2 (centres unmarked) [Compound 3]
100	100	48	24	CCCCCCCCSCC1Cc2c(C)c(O)c(C)c(C)c2O1 (centres unmarked) [Compound 5]
100	100	45	–	Cc1c(C)c2c(c(C)c1O)CC(CSc1ccccn1)O2 (centres unmarked) [Compound 7]
100	100	96	8	Cc1c(C)c2c(c(C)c1O)CC(CSc1ccc(F)cc1)O2 (centres unmarked) [Compound 9]
100	100	19	–	Cc1c(C)c2c(c(C)c1O)CC(CSc1ccc3ccccc3c1)O2 (centres unmarked) [Compound 11]
100	100	8	–	Cc1c(C)c2c(c(C)c1O)CC(C[S+]([O-])c1ccccc1)O2 (centres unmarked) [Compound 13]
100	100	19	10	Cc1c(C)c2c(c(C)c1O)CC(CS(=O)(=O)c1ccccc1)O2 (centres unmarked) [Compound 15]
100	100	88	–	Cc1c(C)c2c(c(C)c1O)CC(CSCc1ccccc1)O2 (centres unmarked) [Compound 17]
100	99	87	-5	Cc1c(C)c2c(c(C)c1O)CC(C)(CSc1ccccc1)O2 (centres unmarked) [Compound 19]
100	100	98	18	Cc1c(C)c2c(c(C)c1O)CC(C)(CSc1ccc(F)cc1)O2 (centres unmarked) [Compound 21]
95	99	94	14	Cc1c(C)c2c(c(C)c1O)CC(C)(CNCCc1ccccc1)O2 (centres unmarked) [Compound 25]
